Source: PubChem BioAssay AID1963849 (Molecular Pharmacology Branch, DTP, NCI, 2024)

Tested on: 299254-011-R-J1-PDC complex spheroid viability
Experiment: Anticancer human tumor 299254-011-R-J1-PDC patient-derived melanoma cell line growth inhibition [POLQ]
Settings: for IC50: curve of first compound; for viability, T/C: stronger effect = lower value; active = viability on the fitted dose curve at most 10% of control; inactive = the rest
How it was run: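 PDC + HUVEC + MSC complex spheroids; POLQ inhibitors ± partner drugs; top conc. at/near clinical Cmax, else 10 microM (SN-38 1 microM), half-log dilutions; 37 degrees C, 5% CO2.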

[1] = second compound 0.0316 µM, first compound 0.0316 µM
[2] = second compound 0.0316 µM, first compound 0.1 µM
[3] = second compound 0.0316 µM, first compound 0.316 µM
[4] = second compound 0.0316 µM, first compound 1 µM
[5] = second compound 0.0316 µM, first compound 3.16 µM
[6] = second compound 0.0316 µM, first compound 10 µM
[7] = second compound 0.1 µM, first compound 0.0316 µM
[8] = second compound 0.1 µM, first compound 0.1 µM
[9] = second compound 0.1 µM, first compound 0.316 µM
[10] = second compound 0.1 µM, first compound 1 µM
[11] = second compound 0.1 µM, first compound 3.16 µM
[12] = second compound 0.1 µM, first compound 10 µM
[13] = second compound 0.316 µM, first compound 0.0316 µM
[14] = second compound 0.316 µM, first compound 0.1 µM
[15] = second compound 0.316 µM, first compound 0.316 µM
[16] = second compound 0.316 µM, first compound 1 µM
[17] = second compound 0.316 µM, first compound 3.16 µM
[18] = second compound 0.316 µM, first compound 10 µM
[19] = second compound 1 µM, first compound 0.0316 µM
[20] = second compound 1 µM, first compound 0.1 µM
[21] = second compound 1 µM, first compound 0.316 µM
[22] = second compound 1 µM, first compound 1 µM
[23] = second compound 1 µM, first compound 3.16 µM
[24] = second compound 1 µM, first compound 10 µM
[25] = second compound 3.16 µM, first compound 0.0316 µM
[26] = second compound 3.16 µM, first compound 0.1 µM
[27] = second compound 3.16 µM, first compound 0.316 µM
[28] = second compound 3.16 µM, first compound 1 µM
[29] = second compound 3.16 µM, first compound 3.16 µM
[30] = second compound 3.16 µM, first compound 10 µM
[31] = second compound 10 µM, first compound 0.0316 µM
[32] = second compound 10 µM, first compound 0.1 µM
[33] = second compound 10 µM, first compound 0.316 µM
[34] = second compound 10 µM, first compound 1 µM
[35] = second compound 10 µM, first compound 3.16 µM
[36] = second compound 10 µM, first compound 10 µM
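Note: spheroids exposed to drugs for one week before measurement.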
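Throughout, for viability, T/C: percent viability relative to DMSO vehicle control taken as 100%.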

C=CC(=O)N1CCN(c2nc(=O)n(-c3c(C)ccnc3C(C)C)c3nc(-c4c(O)cccc4F)c(F)cc23)C(C)C1 (stereo unspecified) + COC1C(OC(N)=O)C(O)C(Oc2ccc3c(O)c(NC(=O)c4ccc(O)c(CC=C(C)C)c4)c(=O)oc3c2C)OC1(C)C
inactive: viability, T/C [1] 75.8% | viability, T/C [2] 72.7% | viability, T/C [3] 64.3% | viability, T/C [4] 66.3% | viability, T/C [5] 69% | viability, T/C [6] 65.1% | viability, T/C [7] 73.9% | viability, T/C [8] 69.6% | viability, T/C [9] 64.8% | viability, T/C [10] 63.1% | viability, T/C [11] 59.4% | viability, T/C [12] 73.4% | viability, T/C [13] 91.4% | viability, T/C [14] 75.5% | viability, T/C [15] 69.7% | viability, T/C [16] 66.6% | viability, T/C [17] 70.4% | viability, T/C [18] 54.2% | viability, T/C [19] 83.5% | viability, T/C [20] 70.7% | viability, T/C [21] 60.7% | viability, T/C [22] 73.3% | viability, T/C [23] 66.1% | viability, T/C [24] 70.3% | viability, T/C [25] 77.1% | viability, T/C [26] 65.5% | viability, T/C [27] 62.3% | viability, T/C [28] 64.7% | viability, T/C [29] 69.3% | viability, T/C [30] 60.1% | viability, T/C [31] 82.9% | viability, T/C [32] 74.5% | viability, T/C [33] 63.5% | viability, T/C [34] 58.7% | viability, T/C [35] 62.5% | viability, T/C [36] 56.8%
> 10 µM: IC50 (second compound 0.0316 µM) | IC50 (second compound 0.1 µM) | IC50 (second compound 0.316 µM) | IC50 (second compound 1 µM) | IC50 (second compound 3.16 µM) | IC50 (second compound 10 µM)

CC1COCCN1c1cc(C2(S(C)(=N)=O)CC2)nc(-c2ccnc3[nH]ccc23)n1 (stereo unspecified) + Cc1cccc(N(C)C(=O)C2C(O)CCN2c2nc(C)cc(C(F)(F)F)c2C#N)c1
5.32 µM: IC50 (second compound 0.1 µM)
2.67 µM: IC50 (second compound 10 µM)
4.22 µM: IC50 (second compound 3.16 µM)
inactive: viability, T/C [1] 105% | viability, T/C [2] 99% | viability, T/C [3] 87.2% | viability, T/C [4] 79.6% | viability, T/C [5] 66.4% | viability, T/C [6] 39.4% | viability, T/C [7] 108% | viability, T/C [8] 103% | viability, T/C [9] 91.1% | viability, T/C [10] 80.1% | viability, T/C [11] 61% | viability, T/C [12] 36.7% | viability, T/C [13] 99.1% | viability, T/C [14] 97.4% | viability, T/C [15] 91.6% | viability, T/C [16] 96.6% | viability, T/C [17] 66% | viability, T/C [18] 42.8% | viability, T/C [19] 93% | viability, T/C [20] 92.5% | viability, T/C [21] 104% | viability, T/C [22] 94.3% | viability, T/C [23] 70.9% | viability, T/C [24] 35.6% | viability, T/C [25] 90.4% | viability, T/C [26] 92.7% | viability, T/C [27] 100% | viability, T/C [28] 92.3% | viability, T/C [29] 54.4% | viability, T/C [30] 36.8% | viability, T/C [31] 93% | viability, T/C [32] 92.7% | viability, T/C [33] 93.8% | viability, T/C [34] 63.7% | viability, T/C [35] 52.7% | viability, T/C [36] 37.9%
7 µM: IC50 (second compound 0.316 µM)
6.25 µM: IC50 (second compound 1 µM)
6.32 µM: IC50 (second compound 0.0316 µM)

COc1cccc(OCCCN)c1-c1cc(Nc2cnc(C#N)cn2)n[nH]1 + COC1C(OC(N)=O)C(O)C(Oc2ccc3c(O)c(NC(=O)c4ccc(O)c(CC=C(C)C)c4)c(=O)oc3c2C)OC1(C)C
0.126 µM: IC50 (second compound 10 µM)
0.111 µM: IC50 (second compound 0.316 µM)
0.206 µM: IC50 (second compound 1 µM)
inactive: viability, T/C (second compound 0.0316 µM, first compound 0.00316 µM) 99.5% | viability, T/C (second compound 0.0316 µM, first compound 0.01 µM) 94.9% | viability, T/C [1] 58.7% | viability, T/C [2] 49.6% | viability, T/C [3] 41.6% | viability, T/C [4] 38.1% | viability, T/C (second compound 0.1 µM, first compound 0.00316 µM) 94.2% | viability, T/C (second compound 0.1 µM, first compound 0.01 µM) 98.6% | viability, T/C [7] 72% | viability, T/C [8] 53.9% | viability, T/C [9] 41.1% | viability, T/C [10] 38% | viability, T/C (second compound 0.316 µM, first compound 0.00316 µM) 105% | viability, T/C (second compound 0.316 µM, first compound 0.01 µM) 102% | viability, T/C [13] 74.5% | viability, T/C [14] 52.4% | viability, T/C [15] 42.1% | viability, T/C [16] 39.6% | viability, T/C (second compound 1 µM, first compound 0.00316 µM) 114% | viability, T/C (second compound 1 µM, first compound 0.01 µM) 89.2% | viability, T/C [19] 74.2% | viability, T/C [20] 56.8% | viability, T/C [21] 43.8% | viability, T/C [22] 39.9% | viability, T/C (second compound 3.16 µM, first compound 0.00316 µM) 99.5% | viability, T/C (second compound 3.16 µM, first compound 0.01 µM) 105% | viability, T/C [25] 65.7% | viability, T/C [26] 55.1% | viability, T/C [27] 38.3% | viability, T/C [28] 48.6% | viability, T/C (second compound 10 µM, first compound 0.00316 µM) 105% | viability, T/C (second compound 10 µM, first compound 0.01 µM) 104% | viability, T/C [31] 67.7% | viability, T/C [32] 56.9% | viability, T/C [33] 49% | viability, T/C [34] 40%
0.0845 µM: IC50 (second compound 3.16 µM)
0.119 µM: IC50 (second compound 0.1 µM)
0.0651 µM: IC50 (second compound 0.0316 µM)
